Test results published in publication PMC6891286, “Towards the Development of an In vivo Chemical Probe for Cyclin G Associated Kinase (GAK)” (Molecules, 2019).

Columns and labels:
Experiment in all cases: KINOMEscan
Assay type in all cases: binding
Details in all cases: 35 at 1 µM; read-out: % inhibition
PCTK1 = target: T1, PCTK1 (Homo sapiens, UniProt Q00536)
T1 construct: purchased Eurofins DiscoverX (KINOMEscan)
Method: (§1) KinomeScan Assay on 35 was performed as previously described at EuroFins DiscoverX (Fremont, CA, USA).

[1] = target: T2, JAK1(JH1domain-catalytic) (Homo sapiens, UniProt P23458)
T2 construct: JAK1(JH1domain-catalytic); purchased Eurofins DiscoverX (KINOMEscan)
Method: as §1

GCN2(Kin.Dom.2,S808G) = target: T3, GCN2(Kin.Dom.2,S808G) (Homo sapiens, UniProt Q9P2K8, S808G)
T3 construct: GCN2(Kin.Dom.2,S808G); purchased Eurofins DiscoverX (KINOMEscan)
T3 sequence (Q9P2K8 585-1001 S808G limits assumed): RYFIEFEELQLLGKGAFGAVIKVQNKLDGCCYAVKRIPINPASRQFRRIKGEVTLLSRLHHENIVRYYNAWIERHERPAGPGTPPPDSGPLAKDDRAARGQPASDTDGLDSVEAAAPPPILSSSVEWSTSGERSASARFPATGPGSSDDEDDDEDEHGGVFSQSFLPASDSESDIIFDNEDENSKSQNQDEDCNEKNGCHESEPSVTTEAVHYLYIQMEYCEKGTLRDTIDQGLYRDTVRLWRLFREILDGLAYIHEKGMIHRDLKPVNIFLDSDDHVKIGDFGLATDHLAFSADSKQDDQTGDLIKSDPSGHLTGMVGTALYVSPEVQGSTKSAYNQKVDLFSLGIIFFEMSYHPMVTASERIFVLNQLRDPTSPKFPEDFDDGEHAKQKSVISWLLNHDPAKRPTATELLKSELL
Method: as §1

PRKG1 = target: T4, PRKG1 (Homo sapiens, UniProt Q13976)
T4 construct: purchased Eurofins DiscoverX (KINOMEscan)
Method: as §1

ACVR1 = target: T5, ACVR1 (Homo sapiens, UniProt Q04771)
T5 construct: purchased Eurofins DiscoverX (KINOMEscan)
Method: as §1

CSNK1A1 = target: T6, CSNK1A1 (Homo sapiens, UniProt P48729)
T6 construct: purchased Eurofins DiscoverX (KINOMEscan)
Method: as §1

PRKD3 = target: T7, PRKD3 (Homo sapiens, UniProt O94806)
T7 construct: purchased Eurofins DiscoverX (KINOMEscan)
T7 sequence (O94806 whole entry): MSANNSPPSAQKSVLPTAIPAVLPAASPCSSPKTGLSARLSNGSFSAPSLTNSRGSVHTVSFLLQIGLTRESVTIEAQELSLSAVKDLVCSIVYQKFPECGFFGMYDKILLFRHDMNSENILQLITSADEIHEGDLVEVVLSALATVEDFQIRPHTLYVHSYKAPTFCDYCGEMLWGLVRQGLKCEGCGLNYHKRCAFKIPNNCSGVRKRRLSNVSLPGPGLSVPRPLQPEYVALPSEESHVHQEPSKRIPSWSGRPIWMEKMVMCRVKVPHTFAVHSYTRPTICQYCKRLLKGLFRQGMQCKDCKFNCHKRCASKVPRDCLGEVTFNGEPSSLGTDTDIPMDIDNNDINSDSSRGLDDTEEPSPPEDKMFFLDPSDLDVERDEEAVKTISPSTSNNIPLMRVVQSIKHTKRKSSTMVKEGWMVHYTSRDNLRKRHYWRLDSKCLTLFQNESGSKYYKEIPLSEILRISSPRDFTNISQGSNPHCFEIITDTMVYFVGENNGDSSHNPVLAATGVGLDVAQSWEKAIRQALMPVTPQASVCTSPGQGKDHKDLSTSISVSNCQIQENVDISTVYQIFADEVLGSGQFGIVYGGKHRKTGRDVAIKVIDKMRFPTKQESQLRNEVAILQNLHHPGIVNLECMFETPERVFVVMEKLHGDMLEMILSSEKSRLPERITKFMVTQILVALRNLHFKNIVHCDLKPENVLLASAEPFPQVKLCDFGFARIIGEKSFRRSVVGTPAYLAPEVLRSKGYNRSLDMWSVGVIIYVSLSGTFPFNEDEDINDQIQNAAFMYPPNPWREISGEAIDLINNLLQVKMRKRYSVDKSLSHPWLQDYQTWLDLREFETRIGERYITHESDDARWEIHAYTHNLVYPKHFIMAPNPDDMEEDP
Method: as §1

RIPK4 = target: T8, RIPK4 (Homo sapiens, UniProt P57078)
T8 construct: purchased Eurofins DiscoverX (KINOMEscan)
Method: as §1

MAP3K15 = target: T9, MAP3K15 (Homo sapiens, UniProt Q6ZN16)
T9 construct: purchased Eurofins DiscoverX (KINOMEscan)
Method: as §1

DCAMKL1 = target: T10, DCAMKL1 (Homo sapiens, UniProt O15075)
T10 construct: purchased Eurofins DiscoverX (KINOMEscan)
T10 sequence (O15075 whole entry): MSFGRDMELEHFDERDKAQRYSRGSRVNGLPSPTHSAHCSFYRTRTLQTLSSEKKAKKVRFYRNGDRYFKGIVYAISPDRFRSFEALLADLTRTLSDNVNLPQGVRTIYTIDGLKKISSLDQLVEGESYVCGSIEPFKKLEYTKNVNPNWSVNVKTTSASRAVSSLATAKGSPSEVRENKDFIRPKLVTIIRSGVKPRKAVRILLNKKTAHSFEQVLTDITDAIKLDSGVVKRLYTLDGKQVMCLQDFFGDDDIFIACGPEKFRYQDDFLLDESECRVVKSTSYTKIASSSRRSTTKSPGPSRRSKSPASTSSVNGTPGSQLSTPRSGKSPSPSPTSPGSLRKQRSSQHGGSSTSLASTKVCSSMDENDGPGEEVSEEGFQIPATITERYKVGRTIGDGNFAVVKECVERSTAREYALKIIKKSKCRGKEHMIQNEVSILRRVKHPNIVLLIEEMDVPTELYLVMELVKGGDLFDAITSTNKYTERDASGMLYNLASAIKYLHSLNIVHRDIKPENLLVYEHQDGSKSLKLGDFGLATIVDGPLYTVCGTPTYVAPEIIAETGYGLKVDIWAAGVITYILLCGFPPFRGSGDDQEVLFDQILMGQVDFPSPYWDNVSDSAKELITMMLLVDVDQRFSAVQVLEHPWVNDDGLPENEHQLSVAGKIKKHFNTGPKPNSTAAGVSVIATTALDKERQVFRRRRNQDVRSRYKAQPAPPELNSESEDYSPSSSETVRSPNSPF
Method: as §1

BRAF = target: T11, BRAF (Homo sapiens, UniProt P15056)
T11 construct: purchased Eurofins DiscoverX (KINOMEscan)
Method: as §1

PLK2 = target: T12, PLK2 (Homo sapiens, UniProt Q9NYY3)
T12 construct: purchased Eurofins DiscoverX (KINOMEscan)
Method: as §1

LRRK2(G2019S) = target: T13, LRRK2(G2019S) (Homo sapiens, UniProt Q5S007, G2019S)
T13 construct: purchased Eurofins DiscoverX (KINOMEscan)
Method: as §1

EIF2AK1 = target: T14, EIF2AK1 (Homo sapiens, UniProt Q9BQI3)
T14 construct: purchased Eurofins DiscoverX (KINOMEscan)
Method: as §1

CAMK2B = target: T15, CAMK2B (Homo sapiens, UniProt Q13554)
T15 construct: purchased Eurofins DiscoverX (KINOMEscan)
Method: as §1

TESK1 = target: T16, TESK1 (Homo sapiens, UniProt Q15569)
T16 construct: purchased Eurofins DiscoverX (KINOMEscan)
T16 sequence (Q15569 whole entry): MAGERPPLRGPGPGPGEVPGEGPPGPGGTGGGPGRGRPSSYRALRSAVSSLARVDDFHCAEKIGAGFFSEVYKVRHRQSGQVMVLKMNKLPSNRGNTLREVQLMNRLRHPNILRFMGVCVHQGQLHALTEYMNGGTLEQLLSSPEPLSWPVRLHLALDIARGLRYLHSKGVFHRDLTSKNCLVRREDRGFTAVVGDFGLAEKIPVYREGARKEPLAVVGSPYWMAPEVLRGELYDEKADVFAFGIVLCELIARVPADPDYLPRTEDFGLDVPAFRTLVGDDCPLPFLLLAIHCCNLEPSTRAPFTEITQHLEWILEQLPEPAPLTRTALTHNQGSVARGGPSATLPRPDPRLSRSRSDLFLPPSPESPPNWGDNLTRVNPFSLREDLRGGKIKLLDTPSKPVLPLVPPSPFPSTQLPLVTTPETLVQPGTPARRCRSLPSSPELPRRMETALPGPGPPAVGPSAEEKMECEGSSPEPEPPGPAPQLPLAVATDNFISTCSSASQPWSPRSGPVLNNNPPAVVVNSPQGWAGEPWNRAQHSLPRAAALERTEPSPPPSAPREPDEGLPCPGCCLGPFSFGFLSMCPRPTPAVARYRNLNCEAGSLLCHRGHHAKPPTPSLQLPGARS
Method: as §1

MEK1 = target: T17, MEK1 (Homo sapiens, UniProt Q02750)
T17 construct: purchased Eurofins DiscoverX (KINOMEscan)
Method: as §1

NDR1 = target: T18, NDR1 (Homo sapiens, UniProt Q15208)
T18 construct: purchased Eurofins DiscoverX (KINOMEscan)
T18 sequence (Q15208 whole entry): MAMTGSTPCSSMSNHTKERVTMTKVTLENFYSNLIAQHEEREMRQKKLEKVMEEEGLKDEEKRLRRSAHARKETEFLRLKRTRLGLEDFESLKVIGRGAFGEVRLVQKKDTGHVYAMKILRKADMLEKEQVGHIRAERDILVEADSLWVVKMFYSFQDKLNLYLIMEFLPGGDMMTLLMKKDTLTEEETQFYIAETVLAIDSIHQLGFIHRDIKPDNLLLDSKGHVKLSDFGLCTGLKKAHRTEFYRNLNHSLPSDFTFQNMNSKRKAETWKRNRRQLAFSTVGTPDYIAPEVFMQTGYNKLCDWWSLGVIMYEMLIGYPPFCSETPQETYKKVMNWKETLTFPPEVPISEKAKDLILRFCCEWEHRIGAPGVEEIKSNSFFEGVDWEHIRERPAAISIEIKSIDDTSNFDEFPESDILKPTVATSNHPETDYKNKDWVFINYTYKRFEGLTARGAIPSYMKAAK
Method: as §1

PRKG2 = target: T19, PRKG2 (Homo sapiens, UniProt Q13237)
T19 construct: purchased Eurofins DiscoverX (KINOMEscan)
Method: as §1

CDKL1 = target: T20, CDKL1 (Homo sapiens, UniProt Q00532)
T20 construct: purchased Eurofins DiscoverX (KINOMEscan)
Method: as §1

TAOK2 = target: T21, TAOK2 (Homo sapiens, UniProt Q9UL54)
T21 construct: purchased Eurofins DiscoverX (KINOMEscan)
Method: as §1

CDK5 = target: T22, CDK5 (Homo sapiens, UniProt Q00535)
T22 construct: purchased Eurofins DiscoverX (KINOMEscan)
Method: as §1

DYRK1B = target: T23, DYRK1B (Homo sapiens, UniProt Q9Y463)
T23 construct: purchased Eurofins DiscoverX (KINOMEscan)
Method: as §1

LCK = target: T24, LCK (Homo sapiens, UniProt P06239)
T24 construct: purchased Eurofins DiscoverX (KINOMEscan)
Method: as §1

STK36 = target: T25, STK36 (Homo sapiens, UniProt Q9NRP7)
T25 construct: purchased Eurofins DiscoverX (KINOMEscan)
Method: as §1

CSK = target: T26, CSK (Homo sapiens, UniProt P41240)
T26 construct: purchased Eurofins DiscoverX (KINOMEscan)
Method: as §1

CSF1R = target: T27, CSF1R (Homo sapiens, UniProt P07333)
T27 construct: purchased Eurofins DiscoverX (KINOMEscan)
Method: as §1

CAMK2D = target: T28, CAMK2D (Homo sapiens, UniProt Q13557)
T28 construct: purchased Eurofins DiscoverX (KINOMEscan)
Method: as §1

PKAC-beta = target: T29, PKAC-beta (Homo sapiens, UniProt P22694)
T29 construct: purchased Eurofins DiscoverX (KINOMEscan)
Method: as §1

CAMKK1 = target: T30, CAMKK1 (Homo sapiens, UniProt Q8N5S9)
T30 construct: purchased Eurofins DiscoverX (KINOMEscan)
Method: as §1

ACVRL1 = target: T31, ACVRL1 (Homo sapiens, UniProt P37023)
T31 construct: purchased Eurofins DiscoverX (KINOMEscan)
Method: as §1

DLK = target: T32, DLK (Homo sapiens, UniProt Q12852)
T32 construct: purchased Eurofins DiscoverX (KINOMEscan)
Method: as §1

MLK3 = target: T33, MLK3 (Homo sapiens, UniProt Q16584)
T33 construct: purchased Eurofins DiscoverX (KINOMEscan)
Method: as §1

HIPK3 = target: T34, HIPK3 (Homo sapiens, UniProt Q9H422)
T34 construct: purchased Eurofins DiscoverX (KINOMEscan)
Method: as §1

PFTAIRE2 = target: T35, PFTAIRE2 (Homo sapiens, UniProt Q96Q40)
T35 construct: purchased Eurofins DiscoverX (KINOMEscan)
T35 sequence (Q96Q40 whole entry): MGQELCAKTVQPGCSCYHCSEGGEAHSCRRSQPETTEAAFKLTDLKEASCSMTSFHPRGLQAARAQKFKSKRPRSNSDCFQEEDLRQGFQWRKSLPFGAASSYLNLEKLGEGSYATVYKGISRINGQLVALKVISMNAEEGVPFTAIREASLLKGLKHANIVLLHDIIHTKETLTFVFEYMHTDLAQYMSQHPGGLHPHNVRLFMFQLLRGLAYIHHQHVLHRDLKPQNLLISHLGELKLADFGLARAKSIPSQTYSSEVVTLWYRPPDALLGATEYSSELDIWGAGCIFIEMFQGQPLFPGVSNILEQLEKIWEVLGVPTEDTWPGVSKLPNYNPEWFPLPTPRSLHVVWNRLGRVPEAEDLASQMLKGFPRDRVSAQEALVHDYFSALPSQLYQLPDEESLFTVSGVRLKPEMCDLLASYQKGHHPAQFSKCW
Method: as §1

PIK3CA(I800L) = target: T36, PIK3CA(I800L) (Homo sapiens, UniProt P42336, I800L)
T36 construct: purchased Eurofins DiscoverX (KINOMEscan)
Method: as §1

CDKL5 = target: T37, CDKL5 (Homo sapiens, UniProt O76039)
T37 construct: purchased Eurofins DiscoverX (KINOMEscan)
Method: as §1

TSSK1B = target: T38, TSSK1B (Homo sapiens, UniProt Q9BXA7)
T38 construct: purchased Eurofins DiscoverX (KINOMEscan)
Method: as §1

MKNK1 = target: T39, MKNK1 (Homo sapiens, UniProt Q9BUB5)
T39 construct: purchased Eurofins DiscoverX (KINOMEscan)
Method: as §1

MARK1 = target: T40, MARK1 (Homo sapiens, UniProt Q9P0L2)
T40 construct: purchased Eurofins DiscoverX (KINOMEscan)
Method: as §1

PRKCH = target: T41, PRKCH (Homo sapiens, UniProt P24723)
T41 construct: purchased Eurofins DiscoverX (KINOMEscan)
T41 sequence (P24723 whole entry): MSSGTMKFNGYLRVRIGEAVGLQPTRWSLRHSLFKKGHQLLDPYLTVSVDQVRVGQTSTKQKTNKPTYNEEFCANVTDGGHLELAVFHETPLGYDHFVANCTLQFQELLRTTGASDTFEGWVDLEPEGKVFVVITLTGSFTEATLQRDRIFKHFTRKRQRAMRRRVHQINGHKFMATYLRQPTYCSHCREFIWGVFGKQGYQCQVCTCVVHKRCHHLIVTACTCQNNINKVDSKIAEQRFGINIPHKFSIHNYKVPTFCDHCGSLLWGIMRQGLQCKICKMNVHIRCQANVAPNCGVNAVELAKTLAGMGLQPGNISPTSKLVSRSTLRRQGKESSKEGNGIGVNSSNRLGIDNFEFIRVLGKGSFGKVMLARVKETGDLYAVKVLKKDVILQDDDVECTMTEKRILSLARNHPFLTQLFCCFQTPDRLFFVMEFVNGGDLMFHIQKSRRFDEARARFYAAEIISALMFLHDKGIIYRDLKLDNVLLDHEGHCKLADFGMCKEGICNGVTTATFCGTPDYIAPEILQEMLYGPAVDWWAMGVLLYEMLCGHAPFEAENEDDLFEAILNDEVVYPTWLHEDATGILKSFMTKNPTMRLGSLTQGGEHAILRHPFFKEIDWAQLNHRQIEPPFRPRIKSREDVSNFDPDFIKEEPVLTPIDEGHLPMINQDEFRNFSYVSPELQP
Method: as §1

BRAF(V600E) = target: T42, BRAF(V600E) (Homo sapiens, UniProt P15056, V600E)
T42 construct: purchased Eurofins DiscoverX (KINOMEscan)
T42 sequence (P15056 whole entry V600E): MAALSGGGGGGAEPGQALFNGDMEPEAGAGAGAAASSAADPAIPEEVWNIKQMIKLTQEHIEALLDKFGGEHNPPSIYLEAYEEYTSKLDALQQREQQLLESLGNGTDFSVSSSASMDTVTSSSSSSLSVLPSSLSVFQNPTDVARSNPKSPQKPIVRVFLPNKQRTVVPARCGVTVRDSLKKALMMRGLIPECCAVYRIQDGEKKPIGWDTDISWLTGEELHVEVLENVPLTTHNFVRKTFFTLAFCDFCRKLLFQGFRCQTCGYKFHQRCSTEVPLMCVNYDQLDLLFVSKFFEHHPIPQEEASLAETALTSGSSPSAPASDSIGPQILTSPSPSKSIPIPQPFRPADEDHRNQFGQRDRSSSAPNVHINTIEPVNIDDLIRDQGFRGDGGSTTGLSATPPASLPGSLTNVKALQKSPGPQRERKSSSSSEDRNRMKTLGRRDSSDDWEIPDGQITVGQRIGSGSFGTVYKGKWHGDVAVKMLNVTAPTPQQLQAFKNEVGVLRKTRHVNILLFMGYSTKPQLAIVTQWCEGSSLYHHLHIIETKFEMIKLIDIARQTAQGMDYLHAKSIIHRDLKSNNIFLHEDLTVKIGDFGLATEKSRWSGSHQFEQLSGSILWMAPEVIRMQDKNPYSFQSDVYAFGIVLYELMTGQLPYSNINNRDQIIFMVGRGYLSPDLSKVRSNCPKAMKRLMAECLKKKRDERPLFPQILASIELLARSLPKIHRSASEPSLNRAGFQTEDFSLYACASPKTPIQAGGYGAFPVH
Method: as §1

`Brc1ccc2nccc(Nc3ccc4cn[nH]c4c3)c2c1` [Compound 35, 6-Bromo-N-(1H-indazol-6-yl)quinolin-4-amine] was tested, and the activity at 1 µM (PCTK1) was 98%, the activity at 1 µM [1] was 100% and the activity at 1 µM (GCN2(Kin.Dom.2,S808G)) was 59%. The activity at 1 µM (PRKG1) was 100%, the activity at 1 µM (ACVR1) was 97% and the activity at 1 µM (CSNK1A1) was 62%. For the same compound, the activity at 1 µM (PRKD3) was 100%, the activity at 1 µM (RIPK4) was 100% and the activity at 1 µM (MAP3K15) was 98%. For the same compound, the activity at 1 µM (DCAMKL1) was 99%, the activity at 1 µM (BRAF) was 92% and the activity at 1 µM (PLK2) was 100%. The activity at 1 µM (LRRK2(G2019S)) was 73%, the activity at 1 µM (EIF2AK1) was 92% and the activity at 1 µM (CAMK2B) was 100%. For the same compound, the activity at 1 µM (TESK1) was 100%, the activity at 1 µM (MEK1) was 71% and the activity at 1 µM (NDR1) was 69%. It also gave an activity at 1 µM (PRKG2) of 100%, an activity at 1 µM (CDKL1) of 47% and an activity at 1 µM (TAOK2) of 91%. For the same compound, the activity at 1 µM (CDK5) was 100%, the activity at 1 µM (DYRK1B) was 100% and the activity at 1 µM (LCK) was 100%. For the same compound, the activity at 1 µM (STK36) was 100%, the activity at 1 µM (CSK) was 100% and the activity at 1 µM (CSF1R) was 95%. It also gave an activity at 1 µM (CAMK2D) of 100%, an activity at 1 µM (PKAC-beta) of 100% and an activity at 1 µM (CAMKK1) of 100%. The activity at 1 µM (ACVRL1) was 100%, the activity at 1 µM (DLK) was 100% and the activity at 1 µM (MLK3) was 100%. The activity at 1 µM (HIPK3) was 87%, the activity at 1 µM (PFTAIRE2) was 100% and the activity at 1 µM (PIK3CA(I800L)) was 76%. For the same compound, the activity at 1 µM (CDKL5) was 100%, the activity at 1 µM (TSSK1B) was 100% and the activity at 1 µM (MKNK1) was 79%. It also gave an activity at 1 µM (MARK1) of 100%, an activity at 1 µM (PRKCH) of 100% and an activity at 1 µM (BRAF(V600E)) of 80%.
